Patent publication US11628186B2, “Method and composition for the reduction of viral replication, duration and spread of the COVID-19 and the flu” (priority 2017, dated 2023)
Values joined by “and” are separate entries in the source; they are usually repeats but may differ in a detail not shown here. Equal entries are not always repeated.

What was measured:
[1] = system: patients with chronic Hypoxemia; experiment: Various drugs with or without pre-inhaled pyruvate formulas (Table VII); type: in vivo, human; set-up: SaO2 Measurements taken after medication and compared to baseline / SaO2 Measurements taken after taking the medication and compared to baseline: unit not given here
Procedure: With the hundreds of patients tested in our various clinical trials, data was gathered as to the type of medications the patients used and the frequency of their use over a six-month period. The patients were asked to rate their medications form 1-10 with 1 being the most irritating with the most side effects and 10 being the best with no irritation and no side effects. In these clinical trials, various drugs were evaluated for irritation, mucus production, and efficacy in humans. The drugs were all evaluated using their current formulations and concentrations against the same formulations with the addition of sodium pyruvate, with the calcium, phosphate and magnesium formula given just prior to the use of their medications. They were instructed to 20 inhale this formula just prior to the use of their medications and to evaluate the effect of their medications on the 1-10 scale.
Patients on the various inhaled medications whether inhaled or taken orally or by IV infusion, were enlisted in the evaluation of the inhaled sodium pyruvate calcium, phosphate and magnesium formula. The patients were tested for their SaO2 levels and those that had SaO2 levels below 92% were asked to enlist in the study. […] After the SaO2 levels were determined prior to and one hour after taking their medications, the patients returned the following day, SaO2 measurements were taken one hour prior to taking their medications. The patients were then handed the hypotonic inhalation formula of sodium pyruvate with calcium, phosphate magnesium formula and instructed to inhale it one hour before taking their medications, SaO2 measurements were then taken one hour after taking their medications.

[2] = system: patients with lung diseases including COPD; experiment: Comparison of inhaled salts of pyruvate, 5 ml of 0.5 mM solution (Table I)
Procedure: All previous studies using pyruvate to treat Allergic Rhinitis, Asthmatic and COPD patients used only the sodium salt form of pyruvic acid in saline. The drug products that were tested in the six Phase I/II clinical trial were differing concentrations of sodium pyruvate dissolved in 0.9% sodium chloride solution (Saline). These drug products contained 0.5 mM, 1.5 mM, or 5.0 mM of sodium pyruvate in physiological saline. They were administered to normal volunteers and COPD and asthmatics by inhalation therapy. […] Various sodium pyruvate solutions were evaluated in the lungs for their ability to enhance FEV1 values and reduce coughing, and lung tightness.
The amount of the salts delivered in the 5 ml's of the 0.5 mM pyruvate solutions were compared to the amounts of the salts in 5 ml's of human blood. […] When ethyl pyruvate reacts with oxygen radical like hydrogen peroxide, it is converted to ethane and alcohol and Co2 and acetate. Ethane and alcohol are lung irritants.
This formula can also be made by adding 3% calcium phosphate or dicalcium phosphate to the standard 0.5 mM to 30 mM sodium pyruvate saline solution see Table I.

[3] = system: patients with lung diseases including COPD; experiment: Comparison of inhaled salts of pyruvate, 5 ml of 5 mM solution (Table II)
[4] = Drug in commercial formula taken in prescribed way
[5] = Drug in commercial formula with Pre-inhaled sodium pyruvate, calcium & phosphate & magnesium
[6] = Drug in commercial formula with pre-inhaled sodium pyruvate saline only
[7] = Drugs commercial formula given as instructed in the package
[8] = Drugs in commercial formula Pre-inhaled sodium pyruvate & calcium & phosphate & magnesium
[9] = Drugs in commercial formula with pre-inhaled sodium pyruvate in saline only
[10] = 5 ml of 0.5 mM solution, inhaled

Compound | SaO2 Measurements taken after medication and compared to baseline [1, 4] | SaO2 measurements taken after taking medication and compared to baseline [1, 5] | SaO2 Measurements taken after taking the medication and compared to baseline [1, 6] | Lung functions (rating 1-10) [1, 7] | Lung functions (rating 1-10) [1, 8] | Lung functions (rating 1-10) [1, 9] | further results
CC(C)(C)NCC(O)c1ccc(O)c(CO)c1 (stereo not drawn) [Albuterol] | 0 | +4 | +1 | 8 | 8 | 8 | –
C/C(=C\C(=O)OCCCCCCCCC(=O)O)C[C@@H]1OC[C@H](C[C@@H]2O[C@H]2[C@@H](C)[C@H](C)O)[C@@H](O)[C@H]1O [Mupirocin] | 0 | +4 | 0 | 4 | 8 | 6 | –
CNC[C@H](O)c1ccc(O)c(O)c1 [Epinephrine] | – | – | – | – | – | – | Lung functions (rating 1-10) ([1]; in vivo): 3 and 4 and 5; SaO2 Measurements taken after medication and compared to baseline ([1]; in vivo): +1; SaO2 Measurements taken after taking the medication and compared to baseline ([1]; in vivo): 0; SaO2 measurements taken after taking medication and compared to baseline ([1]; in vivo): +6
CC1(C)O[C@@H]2C[C@H]3[C@@H]4C[C@H](F)C5=CC(=O)C=C[C@]5(C)[C@H]4[C@@H](O)C[C@]3(C)[C@]2(C(=O)CO)O1 [Flunisolide] | −1 | +4 | +1 | 6 | 6 | 6 | –
CC(=O)N[C@H]1[C@H]([C@H](O)[C@H](O)CO)OC(C(=O)O)=C[C@@H]1N=C(N)N [Zanamivir] | −2 | +5 | 0 | 4 | 7 | 5 | –
O=C(O)c1cc(=O)c2c(OCC(O)COc3cccc4oc(C(=O)O)cc(=O)c34)cccc2o1 [Cromoglycate] | 0 | +5 | 0 | 3 | 7 | 6 | –
CN[C@H](CC(C)C)C(=O)N[C@H]1C(=O)N[C@@H](CC(N)=O)C(=O)N[C@H]2C(=O)N[C@H]3C(=O)N[C@H](C(=O)N[C@H](C(=O)O)c4cc(O)cc(O)c4-c4cc3ccc4O)[C@H](O)c3ccc(c(Cl)c3)Oc3cc2cc(c3O[C@@H]2O[C@H](CO)[C@@H](O)[C@H](O)[C@H]2O[C@H]2C[C@](C)(N)[C@H](O)[C@H](C)O2)Oc2ccc(cc2Cl)[C@H]1O [Vancomycin] | −1 | +1 | 0 | 6 | 8 | 5 | –
CCOC(=O)C(C)=O [ethyl pyruvate, reference compound] | – | – | – | – | – | – | FEV1 ([2]; 5 mls of a 0.5 mM pyruvate inhalation solution in COPD and asthmatic patients): did not increase FEV-1; Irritation ([2]; in vivo): irritating
Levorphanol Tartrate | −6 | +6 | +1 | 2 | 8 | 6 | –
N=C(N)c1ccc(OCCCCCOc2ccc(C(=N)N)cc2)cc1 [Pentamidine isethionate] | −1 | +2 | +1 | 4 | 8 | 5 | –
Oc1ccc2c(c1)[C@@]13CCCC[C@@]1(O)[C@@H](C2)N(CC1CCC1)CC3 [Butorphanol] | −2 | 0 | 0 | 6 | 9 | 7 | –
Insulin | −2 | +4 | +1 | 5 | 7 | 6 | –
NC[C@H]1O[C@H](O[C@H]2[C@H](O)[C@@H](O[C@H]3O[C@H](CO)[C@@H](O)[C@H](N)[C@H]3O)[C@H](N)C[C@@H]2N)[C@H](N)C[C@@H]1O [Tobramycin] | −2 | +3 | 0 | 5 | 6 | 5 | –
Clc1ccccc1C(c1ccccc1)(c1ccccc1)n1ccnc1 [Chlotrimizole] | −2 | +1 | +1 | 4 | 8 | 6 | –
CC(=O)N[C@@H](CS)C(=O)O [N-acetylcysteine, reference compound] | +1 | +4 | 0 | 4 | 8 | 6 | Increased in FEV-1% lung function ([2]; 5 ml of 0.5 mM solution in physiological saline, inhaled): 6%; Irritation [2, 10]: None; Percentage Increase in SaO2 over baseline [2, 10]: 0%; Percentage decrease or increase of Nitric Oxide over baseline [2, 10]: 0%; Relief of congestion, coughing and lung tightness [2, 10]: 8; Overall Rating 1-10 ([2]; 5 ml of 0.5 mM solution, 1 most negative, 10 best): 7; Increased in FEV-1% ([3]; 5 ml of 5 mM solution in saline, inhaled): 2%; Irritation ([3]; 5 ml of 5 mM solution, inhaled): yes; Percentage Increase in SaO2 over baseline ([3]; 5 ml of 5 mM solution, inhaled): 0%; Percentage increase of Nitric Oxide over baseline ([3]; 5 ml of 5 mM solution, inhaled): 1%; Relief of congestion, coughing and lung tightness ([3]; 5 ml of 5 mM solution, inhaled): 7; Overall Rating 1-10 ([3]; 5 ml of 5 mM solution, 1 most negative, 10 best): 7
NC(=O)c1ncn([C@@H]2O[C@H](CO)[C@@H](O)[C@H]2O)n1 [Ribavirin] | −3 | +2 | 0 | 5 | 7 | 6 | –
C[C@H]1[C@H](NC(=O)/C(=N\OC(C)(C)C(=O)O)c2csc(N)n2)C(=O)N1S(=O)(=O)O [Aztreonam] | −1 | +4 | 0 | 8 | 7 | 8 | –
